Earlier results in patent publication US20180369136A1, “DEVICES AND METHODS FOR TRANSDERMAL TREATMENT OF BASAL CELL CARCINOMA” (NORTH CAROLINA STATE UNIVERSITY, priority 2015, published 2018).

Legend:
yeast and bacteria cells = conditions: in vitro
[1] = tested on: immunosuppressed syngeneic mice; conditions: in vivo
[2] = tested on: basal cell carcinoma tumor; conditions: oral itraconazole
[3] = tested on: Hedgehog signaling in basal cell carcinoma; conditions: basal cell carcinoma in vitro model

O=c1[nH]cc(F)c(=O)[nH]1 [fluorouracil, 5-fluorouracil]
mutagenicity (yeast and bacteria cells): causes mutations | mutagenicity [1]: causes mutations

CCC(C)n1ncn(-c2ccc(N3CCN(c4ccc(OCC5COC(Cn6cncn6)(c6ccc(Cl)cc6Cl)O5)cc4)CC3)cc2)c1=O (stereo not drawn) [itraconazole]
solubility in ethanol and water (ethanol and water): poor solubility | side effects [2]: grade 4 congestive heart failure

C=C1CC[C@H](O)C/C1=C/C=C1\CCC[C@]2(C)[C@@H]([C@H](C)CCCC(C)C)CC[C@@H]12 [vitamin D3]
Hedgehog signaling [3]: suppress Hedgehog signaling | solubility in aqueous media (aqueous media): does not readily dissolve
